Data on 20 molecules can be found in ChEMBL document CHEMBL1201862, “PubChem BioAssay data set” (2004).

Some test systems named below: LXFL 529; SNB-78; DLD-1; M19-MEL; KM-20L2; DMS-114; HOP-18; XF498; RXF 631.
Assay in all cases: inhibition of tumour cell growth, NCI panel, 48 h

SMILES strings stand for the structures.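 Step 1: Grow cells in 96-well plates. Step 2: Expose to compound for 48 hours at 5 concentrations. Step 3: Interpolate endpoints linearly; if unreached, use highest concentration. GI50 marks 50% less growth.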 Calls of active or inactive are those of the source. No stated cut-off is given here; in the data, active = GI50 up to about 1.1 µM and inactive = higher.

On to `C[C@]12CC[C@@H]3c4ccccc4CC[C@H]3[C@@H]1CC[C@@H]2O`, for which the GI50 was > 100 µM (inactive) with LXFL 529; > 100 µM (inactive) in the assay with SNB-78; 72.6 µM (inactive) with DLD-1; 78 µM (inactive) in the assay with M19-MEL; 33.8 µM (inactive) in the assay on KM-20L2.

Regarding `CCC1CN2CCc3cc(OC)c(OC)cc3C2CC1CC1c2cc(OC)c(OC)cc2CCN1C(=O)C1CCCN1C(=O)OCc1ccccc1` (stereo not given), the GI50 in the assay with DMS-114 was 13.9 µM (inactive); in the assay with LXFL 529 it was 16.3 µM (inactive); with SNB-78, 16 µM (inactive); in the assay on DLD-1, 15.6 µM (inactive); in the assay with HOP-18 it was 23.1 µM (inactive); in the assay with M19-MEL, 15.5 µM (inactive). Also, the values for the GI50 in the assay with XF498, in the assay on RXF 631 and with KM-20L2 were 16.6 µM (inactive), 18.5 µM (inactive) and 16.7 µM (inactive), respectively.

In the case of `O=[N+]([O-])C1(CO)COC(CCc2ccccc2)OC1` (stereo not given), the GI50 with LXFL 529, with DLD-1, in the assay with HOP-18, in the assay on M19-MEL, in the assay on XF498 and with KM-20L2 was > 100 µM (inactive) throughout.

`CC(O)c1ccc(C(O)/C(=N\NC(=O)c2ccncc2)c2nc3ccc([N+](=O)[O-])cc3nc2O)cc1` (stereo not given): the GI50 was 16.7 µM (inactive) with DMS-114; 54.6 µM (inactive) with LXFL 529; > 100 µM (inactive) in the assay with SNB-78; > 100 µM (inactive) in the assay on DLD-1; > 100 µM (inactive) with M19-MEL; > 100 µM (inactive) with XF498. Also, the GI50 with RXF 631 was > 100 µM (inactive); with KM-20L2, 33.3 µM (inactive).

For `CC(C)C1CC2C(=O)N(c3ccccc3)C(=O)C2c2[nH]c3ccccc3c21` (stereo not given), the GI50 is 20.4 µM (inactive) in the assay with DMS-114; 22.4 µM (inactive) in the assay with SNB-78; 42.5 µM (inactive) with DLD-1; 56.4 µM (inactive) in the assay with M19-MEL; 23.3 µM (inactive) in the assay with XF498; 73.6 µM (inactive) with KM-20L2.

For the molecule `COc1c(Br)cc(Br)c(OC)c1-c1ccc[nH]1`, the GI50 in the assay with DMS-114 was 74.6 µM (inactive); in the assay with LXFL 529, > 100 µM (inactive); in the assay on SNB-78, > 100 µM (inactive); in the assay with DLD-1, 62.5 µM (inactive); with M19-MEL it was 91 µM (inactive).

`COc1ccc(C(=O)C(c2ccc(OC)cc2)C2(O)C(=O)Nc3c2ccc(Cl)c3C)cc1` (stereo not given): the GI50 in the assay on DMS-114 was > 100 µM (inactive); in the assay with LXFL 529, > 100 µM (inactive); with SNB-78 it was > 100 µM (inactive); with HOP-18, 58.9 µM (inactive); in the assay with M19-MEL, > 100 µM (inactive); with RXF 631, 34.9 µM (inactive). Besides, in the assay with KM-20L2, the GI50 is > 100 µM (inactive).

As to `CCCCCCC(=O)C/C(CCC(=O)N(Cc1ccccc1)Cc1ccccc1)=N\NC(N)=O`, the GI50 in the assay with DMS-114, with LXFL 529, in the assay on SNB-78, in the assay on HOP-18, in the assay on M19-MEL and in the assay with XF498 was > 100 µM (inactive) each time. The GI50 in the assay on RXF 631 and in the assay on KM-20L2 was > 100 µM (inactive) each time.

For `COc1ccc(OC)c(NC(=O)C(=O)CC(=O)c2sc(-n3nc(-c4ccccc4)cc3-c3ccccc3)nc2C)c1`, the GI50 in the assay with DMS-114, in the assay with LXFL 529, in the assay on SNB-78, in the assay with DLD-1, with M19-MEL and in the assay on RXF 631 was > 100 µM (inactive) each time. Moreover, the GI50 with KM-20L2 is > 100 µM (inactive).

With `CCOC(=O)C1CCCCN1C(=O)OCc1ccccc1` (stereo not given), the GI50 is 97.7 µM (inactive) in the assay with DMS-114; > 100 µM (inactive) in the assay on LXFL 529; > 100 µM (inactive) in the assay on SNB-78; > 100 µM (inactive) in the assay with DLD-1; > 100 µM (inactive) in the assay with M19-MEL; 14.2 µM (inactive) in the assay on XF498.

Regarding `CC1(C2COC(=O)C2)SCCCS1` (stereo not given), the GI50 with DMS-114, in the assay with LXFL 529, with DLD-1, in the assay with HOP-18, in the assay with M19-MEL and in the assay on XF498 was > 100 µM (inactive) throughout. Further, the GI50 in the assay with KM-20L2 was > 100 µM (inactive).

For the molecule `CC(C)(C)NC(=O)NC12CC3CC(CC(F)(C3)C1)C2`, the GI50 in the assay with DMS-114, in the assay with LXFL 529, in the assay on SNB-78, in the assay on DLD-1, in the assay with M19-MEL and in the assay on XF498 was > 100 µM (inactive) throughout. The GI50 in the assay on RXF 631 and in the assay on KM-20L2 was > 100 µM (inactive) in each case.

For the molecule `CC(=O)Nc1ccccc1-c1nc2ccccc2nc1-c1ccccc1`, the GI50 was > 100 µM (inactive) in the assay with DMS-114; > 100 µM (inactive) with LXFL 529; > 100 µM (inactive) in the assay on SNB-78; > 100 µM (inactive) in the assay with DLD-1; 0.521 µM (active) in the assay on HOP-18; > 100 µM (inactive) in the assay on M19-MEL. The GI50 in the assay with XF498 and in the assay on KM-20L2 was > 100 µM (inactive) in each case.

Consider `N#C/C(=C\c1ccc2[nH]ccc2c1)C(=O)NCCCCNC(=O)/C(C#N)=C/c1ccc2[nH]ccc2c1`, for which the GI50 in the assay on DMS-114, in the assay with LXFL 529, in the assay with SNB-78, with DLD-1, in the assay on M19-MEL and in the assay on XF498 was > 100 µM (inactive) throughout. Also, the GI50 in the assay on KM-20L2 is > 100 µM (inactive).

For the molecule `N#C/C(=C\c1ccccc1F)C(=O)c1ccccc1`, the GI50 with DMS-114, in the assay with LXFL 529, in the assay with SNB-78, in the assay with M19-MEL, in the assay with XF498 and in the assay on KM-20L2 was > 100 µM (inactive) each time.

With `CCCCCCCCCCCC(=O)OCCOCCOCCOCCOCCOCc1ccc(OC)cc1`, the GI50 in the assay on DMS-114, in the assay on LXFL 529, in the assay with SNB-78, with DLD-1, with HOP-18 and with M19-MEL was > 100 µM (inactive) in each case. In addition, the GI50 in the assay on RXF 631 and with KM-20L2 was > 100 µM (inactive) in each case.

`CC(C)(C)C(=O)OCC(COC(=O)C(C)(C)C)[N+](=O)[O-]`: the GI50 in the assay with DMS-114, in the assay on LXFL 529, with DLD-1, in the assay with M19-MEL and in the assay on XF498 was > 100 µM (inactive) in each case.

Take `CCSC(SCC)c1cc2c(cc1Br)OCO2`: the GI50 with DMS-114 was 15.5 µM (inactive); in the assay on SNB-78 it was 26.5 µM (inactive); in the assay on DLD-1, 41 µM (inactive); in the assay on M19-MEL it was 19.1 µM (inactive); in the assay with XF498, 20.4 µM (inactive); in the assay with RXF 631 it was 13.1 µM (inactive). Besides, the GI50 with KM-20L2 is 11.5 µM (inactive).

On to `CN1CC[C@]2(C)c3ccc(O)cc3CC3CCCC1C32C` (stereo not given in full), for which the GI50 with DMS-114, in the assay with LXFL 529, with SNB-78, in the assay with DLD-1, with HOP-18 and with M19-MEL was > 100 µM (inactive) each time. Also, the GI50 with XF498, with RXF 631 and in the assay with KM-20L2 was > 100 µM (inactive) throughout.

On to `C#CCOCn1cnc2c(Cl)ncnc21`, for which the GI50 was 41.4 µM (inactive) with DMS-114; > 100 µM (inactive) with LXFL 529; > 100 µM (inactive) in the assay on SNB-78; > 100 µM (inactive) with DLD-1; > 100 µM (inactive) in the assay on HOP-18; > 100 µM (inactive) with M19-MEL. Also, the GI50 in the assay with XF498 and in the assay with RXF 631 was > 100 µM (inactive) in each case.
